Reference: PMC5615432, “HM71224, a selective Bruton’s tyrosine kinase inhibitor, attenuates the development of murine lupus” (Arthritis Research & Therapy, 2017)

Molecular target: Bruton's tyrosine kinase (BTK) (Homo sapiens, UniProt Q06187)
Assay: immunoblot of BTK Y223 autophosphorylation in anti-IgM-stimulated Ramos cells
Type: cell-based

Chain of Bruton's tyrosine kinase (BTK) (Q06187 2-659): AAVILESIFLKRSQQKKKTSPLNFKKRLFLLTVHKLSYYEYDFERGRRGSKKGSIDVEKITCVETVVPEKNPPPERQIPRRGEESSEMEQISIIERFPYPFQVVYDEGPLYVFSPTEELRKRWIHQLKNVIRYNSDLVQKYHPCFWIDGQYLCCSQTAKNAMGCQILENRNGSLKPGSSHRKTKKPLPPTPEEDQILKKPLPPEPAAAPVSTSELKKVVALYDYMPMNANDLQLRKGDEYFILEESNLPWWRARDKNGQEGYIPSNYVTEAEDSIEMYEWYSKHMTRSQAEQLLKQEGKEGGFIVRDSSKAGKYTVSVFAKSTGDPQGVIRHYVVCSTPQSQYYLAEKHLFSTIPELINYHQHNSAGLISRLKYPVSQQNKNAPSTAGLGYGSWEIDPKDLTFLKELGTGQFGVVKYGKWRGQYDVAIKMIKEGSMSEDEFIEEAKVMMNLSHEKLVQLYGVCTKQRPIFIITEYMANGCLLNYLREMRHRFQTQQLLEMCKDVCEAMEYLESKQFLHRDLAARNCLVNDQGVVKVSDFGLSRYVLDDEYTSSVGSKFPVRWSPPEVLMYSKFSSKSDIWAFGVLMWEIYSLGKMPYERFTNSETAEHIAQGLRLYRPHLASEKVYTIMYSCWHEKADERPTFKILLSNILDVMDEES

C=CC(=O)Nc1cccc(Oc2nc(Nc3ccc(N4CCN(C)CC4)cc3)nc3ccoc23)c1 [HM71224]
IC50: < 0.01 µM
